Experimental data published in patent publication US3954814A, “Alkadienylcyclopropanecarboxylates” (Sumitomo Chemical Company, Limited, priority 1971, dated 1976).
Values after ≈ are worked out from the molar mass of the structure shown.

How the values were obtained:
Type in all cases: in vivo
house flies = assay: Campbell's turn table oil spray test on house fly adults (Experimental Example 1); conditions: Musca domestica, 24 h, oil spray 5 ml, 10 min exposure, mortality after 1 day, read-out: LC50 (50 percent lethal concentration)
Method: The present compounds (1), (4), (8), (10), (14), (15), (20), (22), (32), (36), (38), (41), (44), (48), (50), (51), (52), (53), (61), (66), (68), (72), (73), (78), (80), (81), (90), (93) and (96), and chrysanthemic acid esters and pyrethric acid esters corresponding thereto were individually formulated by use of deodorized kerosene into oil sprays of various test concentrations.
Using the Campbell's turn table [disclosed in "Soap & Sanitary Chemicals," Vol. 14, No. 6, page 119 (1938)], 5 ml. of each of the oil sprays was sprayed. When 20 seconds had elapsed after the spraying, the shutter was opened, and adults of house flies (a group of about 100 flies) were exposed to the settling mist for 10 minutes and then transferred to an observation cage.
The above operation was repeated several times to measure the LC50 (50 percent lethal concentration) of each compound.

[1] = system: Northern house mosquitoes; assay: knock-down test of oil sprays on Northern house mosquito adults in (70 cm)^3 glass chamber (Experimental Example 2)
Method: The present compounds (1), (6), (20), (22), (23), (25), (27), (29), (30), (31), (39), (42), (43), (45), (49), (53), (56), (62), (64), (78), (81), (83), (85), (87), (88) and (89), and chrysanthemic acid esters and pyrethric acid esters corresponding thereto were individually formulated by use of deodorized kerosene into oil sprays of various test concentrations.
About 20 adults of Northern house mosquitoes were liberated in a (70 cm)^3 glass chamber, and 0.7 ml. of each of the oil sprays was sprayed into the chamber under a pressure of 1.5 kg/cm^2 by use of a glass atomizer. Subsequently, the number of knocked-down mosquitoes was counted to calculate the KT50 (50 percent knock down time) of each compound.

rice stem borer larvae = assay: micro dropping (topical) test on hibernating rice stem borer larvae (Experimental Example 3); conditions: topical in acetone, head and tail of larvae, 3 days
Text: The present compounds (1), (4), (8), (10), (14), (15), (22), (32), (36), (38), (41), (44), (48), (50), (51), (52), (53), (61), (66), (68), (72), (73), (80), (81), (90) and (93) and chrysanthemic acid esters corresponding thereto were individually dissolved in acetone to prepare insecticides of various concentrations. Using a micro dropping means, each of the insecticides was dropped to the head and tail of hibernating rice stem borer larvae.

[2] = concentration of oil spray 0.1%
[3] = concentration of oil spray 0.2%

| Structure (SMILES) | LC50 (house flies) [µg/mL] | KT50 (50 percent knock down time) [1, 2] [s] | LD50 (50 percent lethal dose) (rice stem borer larvae) | KT50 (50 percent knock down time) [1, 3] [s] |
| --- | --- | --- | --- | --- |
| CC(C)=CC1C(C(=O)OC(C#N)c2cccc(Oc3ccccc3)c2)C1(C)C (stereo not drawn) [3-Phenoxy-α-cyanobenzyl chrysanthemate, reference compound] | 60 (≈ 160 µM) | 230 | 0.01 γ/larva | – |
| CC(C)=CC1C(C(=O)OCc2coc(Cc3ccccc3)c2)C1(C)C (centres unmarked) [5-Benzyl-3-furylmethyl chrysanthemate, 5-benzyl-3-furylmethyl chrysanthemate, reference compound] | 100 (≈ 295 µM) | – | 0.20 γ/larva | 205 |
| C=CCC1=C(C)C(OC(=O)C2C(C=C(C)C)C2(C)C)CC1=O (centres unmarked) [Allethrin, reference compound] | 1180 (≈ 3900 µM) | 292 | 2.6 γ/larva | 197 |
| C=CC(C)=CC1C(C(=O)OCc2coc(Cc3ccccc3)c2)C1(C)C (centres unmarked) [Present compound (1), 5-Benzyl-3-furylmethyl 2',2'-dimethyl-3'-(2"-methyl-1", 3"-butadienyl)-cyclopropanecarboxylate] | 53 (≈ 151 µM) | – | 0.068 γ/larva | 131 |
| C=CC(C)=CC1C(C(=O)OC(C#N)c2cccc(Oc3ccccc3)c2)C1(C)C (stereo not drawn) [Present compound (22), 3-Phenoxy-α-cyanobenzyl 2',2'-dimethyl-3'-(2"-methyl-1",3"-butadienyl)-cyclopropanecarboxylate] | 40 (≈ 103 µM) | 168 | 0.006 γ/larva | – |
| C=C(C)C=CC1C(C(=O)OCc2coc(Cc3ccccc3)c2)C1(C)C (centres unmarked) [Present compound (53), 5-Benzyl-3-furylmethyl 2',2'-dimethyl-3'-(3"-methyl-1",3"-butadienyl)-cyclopropanecarboxylate] | 71 (≈ 203 µM) | – | 0.170 γ/larva | 124 |
| C=CC=CC1C(C(=O)OC2CC(=O)C(CC=C)=C2C)C1(C)C (centres unmarked) [Present compound (81), 2-Allyl-3-methyl-2-cyclopentene-1-one-4-yl 2',2'-dimethyl-3'-(1",3"-butadienyl)-cyclopropanecarboxylate] | 590 (≈ 1960 µM) | – | 1.7 γ/larva | 141 |
| C=CC=CC1C(C(=O)OCC=C(Cl)Cc2ccccc2)C1(C)C (centres unmarked) [Present compound (90), 3-Chloro-4-phenyl-2-butene-1-yl 2',2'-dimethyl-3'-(1",3"-butadienyl)-cyclopropanecarboxylate] | 170 (≈ 514 µM) | – | 0.43 γ/larva | – |
| C=CC=CC1C(C(=O)OCc2c(C)cc(CC=C)cc2C)C1(C)C (centres unmarked) [Present compound (93), 2,6-Dimethyl-4-allylbenzyl 2',2'-dimethyl-3'-(1",3"-butadienyl)-cyclopropanecarboxylate] | 230 (≈ 709 µM) | – | 0.21 γ/larva | – |
